Laboratory results from patent US9271971B2, “Pyrido[3,4-B]indoles and methods of use” (Medivation Technologies, Inc., priority 2009, dated 2016).

Tests used:
[1] = molecular target: human recombinant serotonin (5-Hydroxytryptamine) 5-HT7 receptor (Homo sapiens, UniProt P34969); test: Serotonin 5-HT7 radioligand binding assay; settings: [3H]LSD specific binding, read-out: Percent Inhibition of ligand binding, Serotonin (1 μM ligand concentration) 5-HT7
Description: To evaluate in radioligand binding assays the activity of compounds of the invention, human recombinant serotonin (5-Hydroxytryptamine) 5-HT7 receptor expressed in Chinese hamster ovary (CHO) cells [Roth, B. L. et al., J. Pharmacol. Exp. Ther. (1994), 268:1403; Shen, Y. et al., J. Biol. Chem. (1993), 268:18200] in a modified Tris-HCl buffer (50 mM Tris-HCl, pH 7.4, 10 mM MgCl2, 0.5 mM EDTA) was used. Compounds of invention were incubated with 5.5 nM [^3H] Lysergic acid diethylamide (LSD) for 2 h at 25° C. Non-specific binding was estimated in the presence of 10 μM Serotonin (5-HT). Receptor proteins were filtered and washed, the filters were then counted to determine [^3H]LSD specifically bound. Compounds were screened at 1 μM or lower, using 1% DMSO as vehicle. Biochemical assay results are presented as the percent inhibition of specific binding in Table 4.

[2] = molecular target: T1, rat adrenergic α1A receptor (Rattus norvegicus, UniProt P43140); test: Adrenergic α1A radioligand binding assay; settings: [3H]Prozosin specific binding, read-out: Percent Inhibition of ligand binding, Adrenergic (0.1 μM ligand conc.) α1A
T1 construct: rat adrenergic α1A receptor obtained from Wistar Rat submaxillary glands; from tissue; host or cells: Wistar Rat submaxillary glands
T1 sequence (P43140 1-466): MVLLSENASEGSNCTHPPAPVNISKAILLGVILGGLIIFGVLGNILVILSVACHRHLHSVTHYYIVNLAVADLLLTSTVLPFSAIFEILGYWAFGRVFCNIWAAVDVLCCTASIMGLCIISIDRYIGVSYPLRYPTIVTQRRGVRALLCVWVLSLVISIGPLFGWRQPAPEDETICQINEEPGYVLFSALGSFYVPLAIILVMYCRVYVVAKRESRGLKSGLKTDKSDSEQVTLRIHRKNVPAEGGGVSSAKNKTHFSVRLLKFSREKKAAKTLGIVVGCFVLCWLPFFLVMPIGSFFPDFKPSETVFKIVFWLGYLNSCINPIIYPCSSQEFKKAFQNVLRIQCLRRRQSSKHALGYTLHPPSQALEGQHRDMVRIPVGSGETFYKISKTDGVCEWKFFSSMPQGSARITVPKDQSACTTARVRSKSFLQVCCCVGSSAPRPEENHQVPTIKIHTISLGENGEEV
Description: (§1) To evaluate in radioligand binding assays the activity of compounds of the invention, rat adrenergic α1A receptor obtained from Wistar Rat submaxillary glands (Michel, A. D. et al., Br. J. Pharmacol. (1989), 98:883] in a modified Tris-HCl buffer (50 mM Tris-HCl buffer, pH 7.4, 0.5 mM EDTA) was used. Compounds of the invention were incubated with 0.25 nM [^3H]Prozosin for 60 min. at 25° C. Non-specific binding was estimated in the presence of 10 μM phentolamine. Receptor proteins were filtered and washed, the filters were then counted to determine [^3H]Prozosin specifically bound. Compounds of the invention were screened at 1 μM or lower, using 1% DMSO as vehicle. Compounds of the invention were tested in this biochemical assay. Biochemical assay results for representative compounds were presented as the percent inhibition of specific binding in Table 3.

[3] = molecular target: human recombinant histamine H1 receptor (Homo sapiens, UniProt P35367); test: Histamine H1 radioligand binding assay; settings: [3H]Pyrilamine specific binding; for inhibition at 1 µM: read-out: Percentage Inhibition, Histamine Binding (1 μM) H1
Description: To evaluate in radioligand binding assays the activity of compounds of the invention, human recombinant histamine H1 receptor expressed in Chinese hamster ovary (CHO) cells [De Backer, M. D. et al., Biochem. Biophys. Res. Comm. (1993), 197(3):1601] in a modified Tris-HCl buffer (50 mM Tris-HCl, pH 7.4, 2 mM MgCl2, 100 mM NaCl, 250 mM Sucrose) was used. Compounds of the invention were incubated with 1.2 nM [^3H]Pyrilamine for 180 min. at 25° C. Non-specific binding was estimated in the presence of 1 μM pyrilamine. Receptor proteins were filtered and washed, the filters were then counted to determine [^3H]Pyrilamine specifically bound. Compounds were screened at 1 μM or lower, using 1% DMSO as vehicle. Biochemical assay results are presented as the percent inhibition of specific binding in Table 2.

[4] = molecular target: T2, rat adrenergic α1B receptor (Rattus norvegicus, UniProt P15823); test: Adrenergic α1B radioligand binding assay; settings: [3H]Prozosin specific binding, read-out: Percent Inhibition of ligand binding, Adrenergic (0.1 μM ligand conc.) α1B
T2 construct: rat adrenergic α1B receptor obtained from Wistar Rat liver; from tissue; host or cells: Wistar Rat liver
T2 sequence (P15823 1-515): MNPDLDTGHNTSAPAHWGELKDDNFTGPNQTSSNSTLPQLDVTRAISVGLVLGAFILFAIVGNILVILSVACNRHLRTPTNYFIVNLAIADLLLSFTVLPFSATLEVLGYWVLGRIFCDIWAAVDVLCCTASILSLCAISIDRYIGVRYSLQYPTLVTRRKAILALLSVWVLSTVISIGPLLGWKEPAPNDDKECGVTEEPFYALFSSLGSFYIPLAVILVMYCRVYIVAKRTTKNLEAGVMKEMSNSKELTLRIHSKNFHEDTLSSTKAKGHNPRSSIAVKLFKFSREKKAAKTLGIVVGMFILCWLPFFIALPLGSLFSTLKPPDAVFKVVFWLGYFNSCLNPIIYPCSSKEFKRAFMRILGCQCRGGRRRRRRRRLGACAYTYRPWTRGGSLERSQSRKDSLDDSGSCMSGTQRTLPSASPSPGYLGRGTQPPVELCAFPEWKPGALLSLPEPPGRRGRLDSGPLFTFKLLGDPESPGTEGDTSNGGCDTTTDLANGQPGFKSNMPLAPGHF
Description: as §1, with “rat adrenergic α1B receptor obtained” for “rat adrenergic α1A receptor obtained”, “Wistar Rat liver [Garcia-S′ainz, J. A. et al., Biochem. Biophys. Res. Commun. (1992), 186:760; Michel, A. D.” for “Wistar Rat submaxillary glands (Michel, A. D.”, “bound. Compounds were screened” for “bound. Compounds of the invention were screened”

human recombinant histamine H1 receptor, sequence (P35367 whole entry): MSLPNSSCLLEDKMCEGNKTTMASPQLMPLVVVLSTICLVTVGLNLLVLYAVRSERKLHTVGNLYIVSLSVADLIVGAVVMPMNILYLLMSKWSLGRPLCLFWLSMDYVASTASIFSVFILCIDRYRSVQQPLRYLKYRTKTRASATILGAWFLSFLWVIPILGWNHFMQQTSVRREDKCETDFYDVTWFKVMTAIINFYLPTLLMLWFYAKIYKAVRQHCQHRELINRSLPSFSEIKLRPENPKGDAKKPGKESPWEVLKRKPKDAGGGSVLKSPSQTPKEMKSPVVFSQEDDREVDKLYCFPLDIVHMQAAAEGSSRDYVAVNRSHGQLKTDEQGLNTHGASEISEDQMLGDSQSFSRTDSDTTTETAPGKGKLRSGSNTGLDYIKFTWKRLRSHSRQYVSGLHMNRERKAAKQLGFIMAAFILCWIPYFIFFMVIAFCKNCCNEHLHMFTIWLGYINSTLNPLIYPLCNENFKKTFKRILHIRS
human recombinant serotonin (5-Hydroxytryptamine) 5-HT7 receptor, sequence (P34969 whole entry): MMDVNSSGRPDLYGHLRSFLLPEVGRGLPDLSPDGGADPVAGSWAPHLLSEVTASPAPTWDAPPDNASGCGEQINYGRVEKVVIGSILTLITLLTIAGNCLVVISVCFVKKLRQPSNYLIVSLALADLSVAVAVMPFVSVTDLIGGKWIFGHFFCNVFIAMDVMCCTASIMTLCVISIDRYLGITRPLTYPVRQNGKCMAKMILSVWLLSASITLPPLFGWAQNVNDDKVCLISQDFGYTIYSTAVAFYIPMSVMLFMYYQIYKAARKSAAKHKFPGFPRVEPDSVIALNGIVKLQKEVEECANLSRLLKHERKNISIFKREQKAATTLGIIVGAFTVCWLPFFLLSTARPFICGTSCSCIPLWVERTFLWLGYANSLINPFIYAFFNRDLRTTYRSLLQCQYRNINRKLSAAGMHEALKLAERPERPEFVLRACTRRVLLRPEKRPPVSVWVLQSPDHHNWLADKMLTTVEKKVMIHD

| Compound | inhibition at 1 µM [1] [%] | inhibition at 0.1 µM [2] [%] | inhibition at 1 µM [3] [%] | inhibition at 0.1 µM [4] [%] | Percentage Inhibition, Histamine Binding (1 μM) H1 ([3]; 1 µM) [%] |
| --- | --- | --- | --- | --- | --- |
| COc1ccc(/C(C)=C/n2c3c(c4cc(C)ccc42)C2CCN(C3)C2)cc1 (centres unmarked) [Compound 45] | 93 | 24 | 26 | 20 | – |
| C/C(=C\n1c2c(c3cc(C)ccc31)C1CCN(C2)C1)c1ccncc1 (centres unmarked) [Compound 44] | 80 | -7 | 23 | 4 | – |
| C/C(=C\n1c2c(c3cc(C)ccc31)C1CCN(C2)C1)c1ccc(Cl)cc1Cl (centres unmarked) [Compound 33] | 96 | 3 | – | 28 | 76 |
| C/C(=C\n1c2c(c3cc(C)ccc31)C1CCN(C2)C1)c1ccccc1F (centres unmarked) [Compound 38] | 95 | 14 | 38 | 29 | – |
| C/C(=C\n1c2c(c3cc(C)ccc31)C1CCN(C2)C1)c1ccc(Cl)cc1 (centres unmarked) [Compound 32] | 96 | 36 | 85 | 67 | – |
